Data on 2 compounds can be found in patent publication US20050261250A1, “Compositions and methods for inhibiting bone resorption” (Merck & Co., Inc.,, priority 2004, published 2005).

Series [1] can be described thus: Autoxidative lability of vitamin D3 as oil or amorphous solid (HPLC). The series is classed as physicochemical. The settings on record: 20-40° C., within hours. From the text:
It is also understood that vitamin D can undergo autoxidation through induction by a free radical initiator or spontaneously in solid or solution phase to form a variety of products, some of which have been identified. Representative characterization of vitamin D degradation (and, specifically, vitamin D3 in this instance) in embodiments of compositions of the present invention confirms the autoxidative lability of vitamin D3 in which vitamin D3 was converted to an oil or amorphous solid and exposed to temperatures from 20-40° C. […] At longer exposure times, these absorptions continued to decrease as further reaction occurred.

The conditions of series [2]: cited from earlier work.

SMILES strings stand for the structures.

For `C=C1CC[C@H](O)C/C1=C/C=C1\CCC[C@]2(C)[C@@H]([C@H](C)CCCC(C)C)CC[C@@H]12` [Vitamin D3, cholecalciferol], the “HPLC analysis of vitamin D3 after exposure” value in series [1] is “extensive destruction”.

Turning to `C=C1CC[C@H](O)C/C1=C/C=C1\CCC[C@]2(C)[C@@H]([C@H](C)/C=C/[C@H](C)C(C)C)CC[C@@H]12` [vitamin D2, ergocalciferol], the aqueous solubility entry in series [2] was “water insoluble”.
